Five molecules from ChEMBL document CHEMBL4190258, “Spirograterpene A, a Tetracyclic Spiro-Diterpene with a Fused 5/5/5/5 Ring System from the Deep-Sea-Derived Fungus Penicillium granulatum MCCC 3A00475” (J Nat Prod, 2017) can be followed below.

SMILES strings stand for the structures. Values after ≈ are worked out from the molar mass of the structure shown.

One experiment deals with RBL-2H3. Kind of experiment: Antiallergic activity in DNP-BSA-stimulated rat RBL2H3 cells assessed as inhibition of anti-DNP-IgE-mediated degranulation by measuring beta-hexosaminidase activity at 20 microg/ml pre-incubated for 1 hr followed by DNP-BSA stimulation by fluorescence assay relative to control. The format is functional.
The next experiment has as its system Staphylococcus aureus. Kind of experiment: Antibacterial activity against methicillin-resistant Staphylococcus aureus incubated for 18 hrs by broth microdilution method. The format is functional. On the technique in general: In broth dilution the organism is exposed to a series of concentrations in liquid medium.
The test system of the next experiment is HL-60. Kind of experiment: Cytotoxicity against human HL60 cells assessed as reduction in cell viability. The format is functional, cell-based.

For orientation: inhibition means the drop in the measured response relative to a control, in per cent. In the case of `C[C@H]1[C@H](O)CC(=O)[C@]2(C)CC[C@H]3[C@@H]4[C@@](C)(CO)CC[C@]4(C)C[C@]132`, the inhibition at 20 µg/mL in the experiment with RBL-2H3 was 4%.

Usually MIC stands for the smallest concentration in the dilution series that meets the test's criterion for growth inhibition. `C[C@@H]1C=CC(=O)[C@@]2(C)CC[C@H]3[C@@]12C[C@]1(C)CCC(C)(C)[C@]31C`: in the experiment on Staphylococcus aureus, it took 8 µg/mL (≈ 26.6 µM) to inhibit growth (MIC). For `C[C@@H]1C[C@@H](O)[C@H](C)[C@@]12CCC1=C2C[C@@]2(C)CC[C@](C)(C(=O)O)[C@@H]12`, the inhibition at 20 µg/mL in the experiment with RBL-2H3 came to 18%. In the case of `CCOC(=O)N1CCC(=C2c3ccc(Cl)cc3CCc3cccnc32)CC1` [LORATADINE], the inhibition at 20 µg/mL in the experiment with RBL-2H3 was 35%. Usually IC50 stands for the concentration at which inhibition is half-maximal. Consider `C[C@@H]1C=CC(=O)[C@@]2(C)CC[C@@H]3[C@@H]4[C@@](C)(CC[C@@]4(C)CO)C[C@@]132`, for which, in the experiment with HL-60, the IC50 was found to be 38 nM. In addition, in the experiment with RBL-2H3, the inhibition at 20 µg/mL is 10%.
